Entries after “also recorded” stand apart in the source; their conditions may differ.
Columns and labels:
LNCaP cells [1] = assay: Quantitative real time PCR of transcript variants in 5-Aza treated LNCaP cells; type: cell-based, human; conditions: 5-Aza treatment vs DMSO
Method: Total RNA was isolated from cells using RNeasy mini kit (Qiagen, Valencia, Calif.) according to manufacturer's instructions. A DNAseI treatment step was included during the total RNA isolation procedure to remove genomic DNA from the samples. One microgram of total RNA was used in cDNA synthesis using Superscript III reverse transcriptase (Invitrogen, Carlsbad, Calif.). Quantitative real time PCR (QPCR) was performed on prostate cell line cDNA samples using SYBR Green Mastermix (Applied Biosystems) on an Applied Biosystems 7900 Real Time PCR system as described (Tomlins et al. 2007, Nat Genet 39: 41-51). GAPDH primers sequences were as described (Vandesompele et al. 2002, Genome Biol 3: RESEARCH0034). The amount of target transcript and GAPDH in each sample was normalized by standard ddCt methodology, and then to the reference PrEC or DMSO-treated LNCaP samples accordingly.
(§1) For 5-Aza stimulation experiments, LNCaP cells cultured in RPMI 1640 were treated with vehicle, dimethyl sulfoxide (DMSO) or 6 μM 5-Aza for 4 or 6 days in duplicates. Total RNA was isolated with Trizol (Life Technologies, Carlsbad, Calif.) and further purified using RNAeasy Micro Kit (Qiagen, Valencia, Calif.) according to the manufacturer's instructions. Expression profiling was performed using the Agilent 44K expression array. One microgram of total RNA was converted to cRNA and then labeled according to the manufacturer's protocol (Agilent). Hybridizations were performed for 16 h at 65° C. Scanned images from Agilent microarray scanner were analyzed and extracted using Agilent Feature Extraction Software 9.1.3.1 with linear and lowess normalization performed for each array. A total of 4 hybridizations were performed including two 4 day and two 6 day 5-Aza treated samples (Cy5) against control DMSO-treated samples (Cy3). The accession number for gene expression dataset in the GEO database is GSE27619.

LNCaP cells [2] = assay: Expression profiling of 5-Aza treated LNCaP cells (Agilent 44K array, one-class SAM); type: cell-based, human; conditions: 6 μM 5-Aza for 4 or 6 days vs DMSO, 5% false discovery rate, number of methylated genes on the array
Method: Significance analysis of microarray (SAM) (Tusher et al. Proc Natl Acad Sci USA 98: 5116-5121 2001) was performed on the gene expression dataset obtained from 5-Aza and DMSO-treated LNCaP cells by selecting genes that were methylated in LNCaP. From 1,171 methylated genes from LNCaP M-NGS (Table 1), a total of 973 genes were mapped to Agilent expression profiling data. One-class SAM analysis was done using default settings and significant genes were calculated with a false discovery rate (FDR) of 0.05.
as §1, with “A total of 4 hybridizations were performed including two 4 day and two 6 day 5-Aza treated samples (Cy5) against control DMSO-treated samples (Cy3). The accession number for gene expression dataset in the GEO database is GSE27619.” left out

Nc1ncn([C@H]2C[C@H](O)[C@@H](CO)O2)c(=O)n1 [5-Aza, 5-Aza-2′-deoxycytidine]
re-expression of CpG-methylated APC variant-2 and -3 (LNCaP cells [1]): preferentially re-expressed; also recorded: re-expression
re-expression of CpG-methylated NDRG2 variants 1-4 (LNCaP cells [1]): preferentially re-expressed; also recorded: re-expression
re-expression of CpG-methylated RASSF1 variant-1 transcript (LNCaP cells [1]): preferential re-expression
upregulation of LNCaP methylated genes (SAM) (LNCaP cells [2]): 246 out of 973

Source: US20130022974A1, “DNA METHYLATION PROFILES IN CANCER” (THE REGENTS OF THE UNIVERSITY OF MICHIGAN, priority 2011, published 2013)
